The values below come from patent US8580794B2 (AbbVie Inc., priority 2009, dated 2013).

This assay deals with GST-Bc1-2 (Homo sapiens, UniProt P10415). In words: Time Resolved-Fluorescence Resonance Energy Transfer (TR-FRET) Bcl-2 binding assay with F-Bak peptide probe. The settings on record: GST-Bcl-2 1 nM, F-Bak probe 100 nM, Tb-anti-GST 1 nM; '<' = below limit of detection; read-out: TR-FRET Bcl-2 Binding Ki.
GST-Bc1-2, sequence (P10415 whole entry): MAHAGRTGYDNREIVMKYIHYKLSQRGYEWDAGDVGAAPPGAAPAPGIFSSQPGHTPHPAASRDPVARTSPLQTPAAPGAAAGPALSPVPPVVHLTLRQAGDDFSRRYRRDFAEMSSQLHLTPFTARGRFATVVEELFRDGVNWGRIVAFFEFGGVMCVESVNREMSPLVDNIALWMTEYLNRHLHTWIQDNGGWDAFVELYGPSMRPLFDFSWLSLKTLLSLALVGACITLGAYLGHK
Procedure: The samples are then mixed on a shaker for 1 minute and incubated for an additional 3 hours at room temperature. For each assay, the probe/antibody and protein/probe/antibody were included on each assay plate as negative and positive controls, respectively.
The samples were then mixed on a shaker for 1 minute and incubated for an additional 3 hours at room temperature. For each assay, the probe/antibody and protein/probe/antibody were included on each assay plate as negative and positive controls, respectively.
Usually Ki stands for a dissociation constant, usually derived from enzyme kinetics or from competition with a known ligand. `CC1(C)CC(c2ccc(Cl)cc2)=C(CN2CCN(c3ccc(C(=O)NS(=O)(=O)c4ccc(NCC5CCOCC5)c(C(F)(F)F)c4)c(Oc4cnc5[nH]ccc5c4)c3)CC2)CO1` [Example 42, 4-(4-{[4-(4-chlorophenyl)-6,6-dimethyl-5,6-dihydro-2H-pyran-3-yl]methyl}piperazin-1-yl)-2-(1H-pyrrolo[2,3-b]pyridin-5-yloxy)-N-{[4-[(tetrahydro-2H-pyran-4-ylmethyl)amino]-3-(trifluoromethyl)phenyl]sulfonyl}benzamide]: the Ki turned out to be 0.439 nM. In the case of `CC1(C)CC(c2ccc(Cl)cc2)=C(CN2CCN(c3ccc(C(=O)NS(=O)(=O)c4ccc(NCC5CCOCC5)c(S(=O)(=O)C(F)(F)F)c4)c(Oc4cnc5[nH]ccc5c4)c3)CC2)CO1` [Example 43, 4-(4-{[4-(4-chlorophenyl)-6,6-dimethyl-5,6-dihydro-2H-pyran-3-yl]methyl}piperazin-1-yl)-2-(1H-pyrrolo[2,3-b]pyridin-5-yloxy)-N-({4-[(tetrahydro-2H-pyran-4-ylmethyl)amino]-3-[(trifluoromethyl)sulfonyl]phenyl}sulfonyl)benzamide], the Ki was 0.012 nM. As for `CC1(C)CC(c2ccc(Cl)cc2)=C(CN2CCN(c3ccc(C(=O)NS(=O)(=O)c4ccc(N[C@H]5CC[C@H](N6CCOCC6)CC5)c(S(=O)(=O)C(F)(F)F)c4)c(Oc4cnc5[nH]ccc5c4)c3)CC2)CO1` [Example 44, Trans-4-(4-{[4-(4-chlorophenyl)-6,6-dimethyl-5,6-dihydro-2H-pyran-3-yl]methyl}piperazin-1-yl)-N-({4-[(4-morpholin-4-ylcyclohexyl)amino]-3-[(trifluoromethyl)sulfonyl]phenyl}sulfonyl)-2-(1H-pyrrolo[2,3-b]pyridin-5-yloxy)benzamide], the Ki is < 0.01 nM. Then `CN1CCC(Nc2ccc(S(=O)(=O)NC(=O)c3ccc(N4CCN(CC5=C(c6ccc(Cl)cc6)CC(C)(C)OC5)CC4)cc3Oc3cnc4[nH]ccc4c3)cc2S(=O)(=O)C(F)(F)F)CC1` [Example 45, 4-(4-{[4-(4-chlorophenyl)-6,6-dimethyl-5,6-dihydro-2H-pyran-3-yl]methyl}piperazin-1-yl)-N-({4-[(1-methylpiperidin-4-yl)amino]-3-[(trifluoromethyl)sulfonyl]phenyl}sulfonyl)-2-(1H-pyrrolo[2,3-b]pyridin-5-yloxy)benzamide], with < 0.01 nM; and `CC1(C)CCC(CN2CCN(c3ccc(C(=O)NS(=O)(=O)c4cnc(OCC5CCOCC5)c(C(N)=O)c4)c(Oc4cnc5[nH]ccc5c4)c3)CC2)=C(c2ccc(Cl)cc2)C1` [Example 46, 5-({[4-(4-{[2-(4-chlorophenyl)-4,4-dimethylcyclohex-1-en-1-yl]methyl}piperazin-1-yl)-2-(1H-pyrrolo[2,3-b]pyridin-5-yloxy)benzoyl]amino}sulfonyl)-2-(tetrahydro-2H-pyran-4-ylmethoxy)nicotinamide], with 0.935 nM. Then `CN1CCC(COc2ncc(S(=O)(=O)NC(=O)c3ccc(N4CCN(CC5=C(c6ccc(Cl)cc6)CC(C)(C)CC5)CC4)cc3Oc3cnc4[nH]ccc4c3)cc2Br)CC1` [Example 47, N-({5-bromo-6-[(1-methylpiperidin-4-yl)methoxy]pyridin-3-yl}sulfonyl)-4-(4-{[2-(4-chlorophenyl)-4,4-dimethylcyclohex-1-en-1-yl]methyl}piperazin-1-yl)-2-(1H-pyrrolo[2,3-b]pyridin-5-yloxy)benzamide], with < 0.01 nM; and `CN1CCC(COc2ccc(S(=O)(=O)NC(=O)c3ccc(N4CCN(CC5=C(c6ccc(Cl)cc6)CC(C)(C)CC5)CC4)cc3Oc3cnc4[nH]ccc4c3)cc2[N+](=O)[O-])CC1` [Example 48, 4-(4-{[2-(4-chlorophenyl)-4,4-dimethylcyclohex-1-en-1-yl]methyl}piperazin-1-yl)-N-({4-[(1-methylpiperidin-4-yl)methoxy]-3-nitrophenyl}sulfonyl)-2-(1H-pyrrolo[2,3-b]pyridin-5-yloxy)benzamide], with < 0.01 nM; and `CC1(C)CCC(CN2CCN(c3ccc(C(=O)NS(=O)(=O)c4cnc(OCC5COCCO5)c(C#N)c4)c(Oc4cnc5[nH]ccc5c4)c3)CC2)=C(c2ccc(Cl)cc2)C1` (stereo not shown) [Example 49, 4-(4-{[2-(4-chlorophenyl)-4,4-dimethylcyclohex-1-en-1-yl]methyl}piperazin-1-yl)-N-{[5-cyano-6-(1,4-dioxan-2-ylmethoxy)pyridin-3-yl]sulfonyl}-2-(1H-pyrrolo[2,3-b]pyridin-5-yloxy)benzamide], with 0.074 nM. Then `CC1(C)CCC(CN2CCN(c3ccc(C(=O)NS(=O)(=O)c4cnc(OCC5COCCO5)c(Br)c4)c(Oc4cnc5[nH]ccc5c4)c3)CC2)=C(c2ccc(Cl)cc2)C1` (stereo not shown) [Example 50, N-{[5-bromo-6-(1,4-dioxan-2-ylmethoxy)pyridin-3-yl]sulfonyl}-4-(4-{[2-(4-chlorophenyl)-4,4-dimethylcyclohex-1-en-1-yl]methyl}piperazin-1-yl)-2-(1H-pyrrolo[2,3-b]pyridin-5-yloxy)benzamide], with 0.021 nM. For the compound `CC1(C)CCC(CN2CCN(c3ccc(C(=O)NS(=O)(=O)c4ccc(OCC5CCOC(C)(C)C5)c([N+](=O)[O-])c4)c(Oc4cnc5[nH]ccc5c4)c3)CC2)=C(c2ccc(Cl)cc2)C1` (stereo not shown) [Example 51, 4-(4-{[2-(4-chlorophenyl)-4,4-dimethylcyclohex-1-en-1-yl]methyl}piperazin-1-yl)-N-({4-[(2,2-dimethyltetrahydro-2H-pyran-4-yl)methoxy]-3-nitrophenyl}sulfonyl)-2-(1H-pyrrolo[2,3-b]pyridin-5-yloxy)benzamide], the Ki was < 0.01 nM. Under `CC1(C)CCC(CN2CCN(c3ccc(C(=O)NS(=O)(=O)c4cc(Cl)c(NCC5CCOCC5)c(C#N)c4)c(Oc4cnc5[nH]ccc5c4)c3)CC2)=C(c2ccc(Cl)cc2)C1` [Example 52, N-({3-chloro-5-cyano-4-[(tetrahydro-2H-pyran-4-ylmethyl)amino]phenyl}sulfonyl)-4-(4-{[2-(4-chlorophenyl)-4,4-dimethylcyclohex-1-en-1-yl]methyl}piperazin-1-yl)-2-(1H-pyrrolo[2,3-b]pyridin-5-yloxy)benzamide] stands 0.114 nM. Under `CC(=O)N1CCC(Nc2ccc(S(=O)(=O)NC(=O)c3ccc(N4CCN(CC5=C(c6ccc(Cl)cc6)CC(C)(C)CC5)CC4)cc3Oc3cnc4[nH]ccc4c3)cc2[N+](=O)[O-])CC1` [Example 53, N-({4-[(1-acetylpiperidin-4-yl)amino]-3-nitrophenyl}sulfonyl)-4-(4-{[2-(4-chlorophenyl)-4,4-dimethylcyclohex-1-en-1-yl]methyl}piperazin-1-yl)-2-(1H-pyrrolo[2,3-b]pyridin-5-yloxy)benzamide] stands < 0.01 nM; under `CC1(C)CCC(CN2CCN(c3ccc(C(=O)NS(=O)(=O)c4cc(F)c(NCC5CCOCC5)cc4Cl)c(Oc4cnc5[nH]ccc5c4)c3)CC2)=C(c2ccc(Cl)cc2)C1` [Example 54, N-({2-chloro-5-fluoro-4-[(tetrahydro-2H-pyran-4-ylmethyl)amino]phenyl}sulfonyl)-4-(4-{[2-(4-chlorophenyl)-4,4-dimethylcyclohex-1-en-1-yl]methyl}piperazin-1-yl)-2-(1H-pyrrolo[2,3-b]pyridin-5-yloxy)benzamide], 2.07 nM; under `CC1(C)CCC(CN2CCN(c3ccc(C(=O)NS(=O)(=O)c4ccc(NCCCN5CCOCC5)c([N+](=O)[O-])c4)c(Oc4cnc5[nH]ccc5c4)c3)CC2)=C(c2ccc(Cl)cc2)C1` [Example 55, 4-(4-{[2-(4-chlorophenyl)-4,4-dimethylcyclohex-1-en-1-yl]methyl}piperazin-1-yl)-N-({4-[(3-morpholin-4-ylpropyl)amino]-3-nitrophenyl}sulfonyl)-2-(1H-pyrrolo[2,3-b]pyridin-5-yloxy)benzamide], < 0.01 nM. Then `CC1(C)CCC(CN2CCN(c3ccc(C(=O)NS(=O)(=O)c4cnc(OCC5(F)CCOCC5)c(C#N)c4)c(Oc4cnc5[nH]ccc5c4)c3)CC2)=C(c2ccc(Cl)cc2)C1` [Example 56, 4-(4-{[2-(4-chlorophenyl)-4,4-dimethylcyclohex-1-en-1-yl]methyl}piperazin-1-yl)-N-({5-cyano-6-[(4-fluorotetrahydro-2H-pyran-4-yl)methoxy]pyridin-3-yl}sulfonyl)-2-(1H-pyrrolo[2,3-b]pyridin-5-yloxy)benzamide], with 0.037 nM; and `CC1(C)CCC(CN2CCN(c3ccc(C(=O)NS(=O)(=O)c4cnc(OCCN5CCOCC5)c(C#N)c4)c(Oc4cnc5[nH]ccc5c4)c3)CC2)=C(c2ccc(Cl)cc2)C1` [Example 57, 4-(4-{[2-(4-chlorophenyl)-4,4-dimethylcyclohex-1-en-1-yl]methyl}piperazin-1-yl)-N-{[5-cyano-6-(2-morpholin-4-ylethoxy)pyridin-3-yl]sulfonyl}-2-(1H-pyrrolo[2,3-b]pyridin-5-yloxy)benzamide], with 0.063 nM. With `COCCOCCS(=O)(=O)c1ccc(S(=O)(=O)NC(=O)c2ccc(N3CCN(CC4=C(c5ccc(Cl)cc5)CC(C)(C)CC4)CC3)cc2Oc2cnc3[nH]ccc3c2)cc1Cl` [Example 58, N-[(3-chloro-4-{[2-(2-methoxyethoxy)ethyl]sulfonyl}phenyl)sulfonyl]-4-(4-{[2-(4-chlorophenyl)-4,4-dimethylcyclohex-1-en-1-yl]methyl}piperazin-1-yl)-2-(1H-pyrrolo[2,3-b]pyridin-5-yloxy)benzamide], the Ki was < 0.01 nM.

On to `COCCOCCS(=O)(=O)c1ccc(S(=O)(=O)NC(=O)c2ccc(N3CCN(CC4=C(c5ccc(Cl)cc5)CC(C)(C)CC4)CC3)cc2Oc2cnc3[nH]ccc3c2)cc1[N+](=O)[O-]` [Example 59, 4-(4-{[2-(4-chlorophenyl)-4,4-dimethylcyclohex-1-en-1-yl]methyl}piperazin-1-yl)-N-[(4-{[2-(2-methoxyethoxy)ethyl]sulfonyl}-3-nitrophenyl)sulfonyl]-2-(1H-pyrrolo[2,3-b]pyridin-5-yloxy)benzamide], for which the inhibitory constant (Ki) was found to be 0.203 nM.

As to `CC1(C)CCC(CN2CCN(c3ccc(C(=O)NS(=O)(=O)c4ccc(O[C@H]5CC[C@H](N6CCOCC6)CC5)c([N+](=O)[O-])c4)c(Oc4cnc5[nH]ccc5c4)c3)CC2)=C(c2ccc(Cl)cc2)C1` [Example 60, Trans-4-(4-{[2-(4-chlorophenyl)-4,4-dimethylcyclohex-1-en-1-yl]methyl}piperazin-1-yl)-N-({4-[(4-morpholin-4-ylcyclohexyl)oxy]-3-nitrophenyl}sulfonyl)-2-(1H-pyrrolo[2,3-b]pyridin-5-yloxy)benzamide], the Ki is < 0.01 nM.
